Reference: patent publication US12037355B2, “Triterpene saponin analogues” (priority 2015, dated 2024)

What was measured:
[1] = Pilot pharmacology/toxicology study with Adacel, QS-21 and TiterQuil-1055; conditions: for changes in blood chemistry or hematology results: SC days 1 and 15, bled day 22 (group 7 day 29); for weight loss (body weight): mice, 50 mcg TiterQuil-1055, 20 mcg QS-21; for liver histopathology (hepatocellular cytoplasmic vacuolization): sacrificed day 22, 33 tissues examined
[2] = test system: hemolysis; assay: Hemolytic assay; format: cell-based
Procedure: (§1) Natural and synthetic QS-21 (SQS-21 or SAPONEX®) and a variety of analogs were tested for hemolytic activity.

[3] = test system: pertussis toxin; assay: Adacel (Tdap vaccine) immunogenicity in mice, anti-PT antibody in serum; format: in vivo; conditions: for Antibody levels augmented compared to immunization with Adacel alone: adjuvant with Adacel
[4] = Companion toxicity study, body mass three days after immunization
Procedure: as §1

[5] = Stability at 37° C.; format: physicochemical; conditions: for degradation: after two weeks at 37° C.
Procedure: as §1

[6] = Weight loss in Engerix-B / TiterQuil-1055 study; conditions: mice
[7] = cited from earlier work
[8] = groups of 5 mice, 50 mcg TiterQuil-1055, 20 mcg QS-21, Adacel 2.5 mcg pertussis toxin
[9] = 50 mcg TiterQuil-1055, 20 mcg QS-21, Adacel 2.5 mcg pertussis toxin
[10] = groups of 5 mice, 2 weeks after second SC immunization

| Compound | changes in blood chemistry or hematology results [1, 8] | weight loss ([1]; groups of 5 mice, SC days 1 and 15, weighed daily, 50 mcg TiterQuil-1055, 20 mcg QS-21, Adacel 2.5 mcg pertussis toxin) | weight loss (body weight) [1] | liver histopathology (hepatocellular cytoplasmic vacuolization) [1, 9] | hemolytic activity [2] | Antibody levels ([3]; 0.5 mcg dose of Adacel, alone or with TiterQuil-1055, groups of 5 mice, 2 weeks after second SC immunization) | Antibody levels 2 weeks later ([3]; TiterQuil-1055 with Adacel, 2 weeks after the 2-week post-second-immunization bleed) | Antibody levels augmented compared to immunization with Adacel alone [3, 10] [fold] | body mass gained on average ([4]; young mice) [%] | stability relative to QS-21 [5] | degradation [5] | weight loss ([6]; 30 mcg TiterQuil-1055 dose) | weight loss ([6]; 100 mcg TiterQuil-1055 dose) [%] | weight loss ([6]; 300 mcg TiterQuil-1055 dose) [%] | body mass lost on average ([4]; 20 mcg QS-21) | tolerated (maximum) dose in cancer patients ([7]; cancer patients, above this dose local and systemic side effects) [µg] | maximum dose for healthy patients ([7]; healthy patients) [µg] | highest practical tolerable dose ([7]; well (non-cancer) adult and child recipients) [µg] |
| --- | --- | --- | --- | --- | --- | --- | --- | --- | --- | --- | --- | --- | --- | --- | --- | --- | --- | --- |
| CC1O[C@@H](OC2C(O)[C@@H](NC(=O)CCCCCCCCCCC(=O)O)C(CO)O[C@H]2OC(=O)[C@]23CCC(C)(C)CC2C2=CCC4C5(C)CC[C@H](O)C(C)(C=O)C5CC[C@]4(C)C2(C)CC3O)C(O)C(O)[C@H]1O[C@@H]1OC[C@@H](O)C(O)C1O (stereo partly drawn) [Compound I-4] | No changes | no other mice | No weight loss | No changes at all | much lower or undetectable hemolytic activity | 52,344 | further increased | 70 | 5 | increased stability | without detectable degradation | No weight loss | 4 | 5 |  |  |  |  |
| QS-21 [reference compound] | No changes |  | 8-9% | Mild vacuolar changes | highly hemolytically active |  |  | 10 |  |  | 20% |  |  |  | 8-10% | 100 to 150 | ~50 | 25 to 50 |
